system: NFkB activity; assay: Glucocorticoid mediated transrepression of NFkB activity (A549 cells, ELAM promoter alkaline phosphatase reporter, TNFα stimulated); assay type: cell-based; conditions: Homo sapiens, A549, 16 h, Human A549 lung epithelial cells, 3 ng/ml human recombinant TNFα, read-out: pEC50, transrepression of NFkB activity (converted)
From the text: Human A549 lung epithelial cells were engineered to contain a secreted placental alkaline phosphatase gene under the control of the distal region of the NFkB dependent ELAM promoter as previously described in Ray, K. P., Farrow, S., Daly, M., Talabot, F. and Searle, N. “Induction of the E-selectin promoter by interleukin 1 and tumour necrosis factor alpha, and inhibition by glucocorticoids” Biochemical Journal (1997) 328: 707-15.
Compounds were solvated and diluted in DMSO, and transferred directly into assay plates such that the final concentration of DMSO was 0.7%. Following the addition of cells (40K per well), plates were incubated for 1 hr prior to the addition of 3 ng/ml human recombinant TNFα. Following continued incubation for 16 hr, alkaline phosphatase activity was determined by measuring the change in optical density at 405 nm with time following the addition of 0.7 volumes of assay buffer (1 mg/ml p-nitrophenylphosphate dissolved in 1M diethanolamine, 0.28M NaCl, 0.5 mM MgCl2). Dose response curves were constructed from which EC50 values were estimated.

Row | SMILES | EC50
1 | CC(C)(CC(O)(CNc1cccc2c1cnn2-c1ccc(F)cc1)C(F)(F)F)c1cccc2c1OCC2 (racemic) [Example 11, 4-(2,3-Dihydro-1-benzofuran-7-yl)-1,1,1-trifluoro-2-({[1-(4-fluorophenyl)-1H-indazol-4-yl]amino}methyl)-4-methyl-2-pentanol] | < 3.16 nM
2 | COc1ccc(F)cc1C(C)(C)CC(O)(CNc1cc(C)cc2c1cnn2-c1cccc(O)c1)C(F)(F)F (stereo not drawn) [Example 23, 3-(4-{[4-[5-Fluoro-2-(methyloxy)phenyl]-2-hydroxy-4-methyl-2-(trifluoromethyl)pentyl]amino}-6-methyl-1H-indazol-1-yl)phenol] | < 3.16 nM
3 | COc1cccc(-n2ncc3c(NCC(O)(CC(C)(C)c4cc(F)ccc4OC)C(F)(F)F)cc(C)cc32)c1 (stereo not drawn) [Example 22, 1,1,1-Trifluoro-4-[5-fluoro-2-(methyloxy)phenyl]-4-methyl-2-[({6-methyl-1-[3-(methyloxy)phenyl]-1H-indazol-4-yl}amino)methyl]-2-pentanol] | < 3.16 nM
4 | CCOC(=O)c1cccc(-n2ncc3c(NCC(O)(CC(C)(C)c4cccc5c4OCC5)C(F)(F)F)cccc32)c1 (racemic) [Example 9, Ethyl 3-(4-{[4-(2,3-dihydro-1-benzofuran-7-yl)-2-hydroxy-4-methyl-2-(trifluoromethyl)pentyl]amino}-1H-indazol-1-yl)benzoate] | < 3.16 nM
5 | CC(C)(CC(O)(CNc1cccc2c1cnn2-c1ccc(F)cc1F)C(F)(F)F)c1cccc2c1OCC2 (racemic) [Example 12, 2-({[1-(2,4-Difluorophenyl)-1H-indazol-4-yl]amino}methyl)-4-(2,3-dihydro-1-benzofuran-7-yl)-1,1,1-trifluoro-4-methyl-2-pentanol] | < 3.16 nM
6 | CC(C)(CC(O)(CNc1cccc2c1cnn2-c1ccccc1F)C(F)(F)F)c1cccc2c1OCC2 (racemic) [Example 10, 4-(2,3-Dihydro-1-benzofuran-7-yl)-1,1,1-trifluoro-2-({[1-(2-fluorophenyl)-1H-indazol-4-yl]amino}methyl)-4-methyl-2-pentanol] | < 3.16 nM
7 | COc1ccc(-n2ncc3c(NCC(O)(CC(C)(C)c4cc(F)ccc4OC)C(F)(F)F)cc(C)cc32)cc1 (stereo not drawn) [Example 19, 1,1,1-Trifluoro-4-[5-fluoro-2-(methyloxy)phenyl]-4-methyl-2-[({6-methyl-1-[4-(methyloxy)phenyl]-1H-indazol-4-yl}amino)methyl]-2-pentanol] | < 3.16 nM
8 | Cc1cc(NC[C@](O)(CC(C)(C)c2cc(F)ccc2O)C(F)(F)F)c2cnn(-c3ccc(F)cc3F)c2c1 [Example 18, 2(R)-2-[3-({[1-(2,4-Difluorophenyl)-6-methyl-1H-indazol-4-yl]amino}methyl)-4,4,4-trifluoro-3-hydroxy-1,1-dimethylbutyl]-4-fluorophenol] | < 3.16 nM
9 | COc1ccc(-n2ncc3c(NCC(O)(CC(C)(C)c4cccc5c4OCC5)C(F)(F)F)cccc32)cc1 (racemic) [Example 28, 4-(2,3-Dihydro-1-benzofuran-7-yl)-1,1,1-trifluoro-4-methyl-2-[({1-[4-(methyloxy)phenyl]-1H-indazol-4-yl}amino)methyl]-2-pentanol] | < 3.16 nM
10 | COc1ccc(F)cc1C(C)(C)CC(O)(CNc1cc(C)cc2c1cnn2-c1ccc(F)cc1F)C(F)(F)F (racemic) [Example 16, 2-({[1-(2,4-Difluorophenyl)-6-methyl-1H-indazol-4-yl]amino}methyl)-1,1,1-trifluoro-4-[5-fluoro-2-(methyloxy)phenyl]-4-methyl-2-pentanol] | < 3.16 nM
11 | CC(C)(CC(O)(CNc1cccc2c1cnn2-c1ccncc1)C(F)(F)F)c1cccc2c1OCC2 (racemic) [Example 13, 4-(2,3-Dihydro-1-benzofuran-7-yl)-1,1,1-trifluoro-4-methyl-2-({[1-(4-pyridinyl)-1H-indazol-4-yl]amino}methyl)-2-pentanol] | < 3.16 nM
12 | CC(C)(CC(O)(CNc1cccc2c1cnn2-c1ccccc1)C(F)(F)F)c1cccc2c1OCC2 (racemic) [Example 8, 4-(2,3-Dihydro-1-benzofuran-7-yl)-1,1,1-trifluoro-4-methyl-2-{[(1-phenyl-1H-indazol-4-yl)amino]methyl}-2-pentanol] | < 3.16 nM
13 | CCOC(=O)c1cccc(-n2ncc3c(NCC(O)(CC(C)(C)c4cc(F)ccc4OC)C(F)(F)F)cccc32)c1 (racemic) [Example 6, Ethyl 3-(4-{[4-[5-fluoro-2-(methyloxy)phenyl]-2-hydroxy-4-methyl-2-(trifluoromethyl)pentyl]amino}-1H-indazol-1-yl)benzoate] | < 3.16 nM
14 | CCOC(=O)c1cccc(-n2ncc3c(NCC(O)(CC(C)(C)c4cc(F)ccc4OC)C(F)(F)F)cc(C)cc32)c1 (stereo not drawn) [Example 27, Ethyl 3-(4-{[4-[5-fluoro-2-(methyloxy)phenyl]-2-hydroxy-4-methyl-2-(trifluoromethyl)pentyl]amino}-6-methyl-1H-indazol-1-yl)benzoate] | < 3.16 nM

The next lines start with the values.

Row | EC50 | SMILES
15 | < 3.16 nM | COc1ccc(F)cc1C(C)(C)CC(O)(CNc1cccc2c1cnn2-c1ccc(F)cc1)C(F)(F)F (single isomer, unassigned) [Example 2-B, 1,1,1-Trifluoro-4-[5-fluoro-2-(methyloxy)phenyl]-2-({[1-(4-fluorophenyl)-1H-indazol-4-yl]amino}methyl)-4-methyl-2-pentanol]
16 | < 3.16 nM | COc1ccc(F)cc1C(C)(C)CC(O)(CNc1cccc2c1cnn2-c1ccccc1F)C(F)(F)F (single isomer, unassigned) [Example 1-A, 1,1,1-Trifluoro-4-[5-fluoro-2-(methyloxy)phenyl]-2-({[1-(2-fluorophenyl)-1H-indazol-4-yl]amino}methyl)-4-methyl-2-pentanol]
17 | < 3.16 nM | COC(=O)c1cccc(-n2ncc3c(NCC(O)(CC(C)(C)c4cc(F)ccc4OC)C(F)(F)F)cccc32)c1 (racemic) [Example 14, Methyl 3-(4-{[4-[5-fluoro-2-(methyloxy)phenyl]-2-hydroxy-4-methyl-2-(trifluoromethyl)pentyl]amino}-1H-indazol-1-yl)benzoate]
18 | < 3.16 nM | COc1ccc(F)cc1C(C)(C)CC(O)(CNc1cc(C)cc2c1cnn2-c1ccccc1F)C(F)(F)F (racemic) [Example 25, 1,1,1-Trifluoro-4-[5-fluoro-2-(methyloxy)phenyl]-2-({[1-(2-fluorophenyl)-6-methyl-1H-indazol-4-yl]amino}methyl)-4-methyl-2-pentanol]
19 | < 3.16 nM | COc1ccc(F)cc1C(C)(C)CC(O)(CNc1cccc2c1cnn2-c1ccccc1F)C(F)(F)F (racemic) [Example 1, 1,1,1-Trifluoro-4-[5-fluoro-2-(methyloxy)phenyl]-2-({[1-(2-fluorophenyl)-1H-indazol-4-yl]amino}methyl)-4-methyl-2-pentanol]
20 | < 3.16 nM | COc1ccc(F)cc1C(C)(C)CC(O)(CNc1cc(C)cc2c1cnn2-c1ccccc1)C(F)(F)F (racemic) [Example 15, 1,1,1-Trifluoro-4-[5-fluoro-2-(methyloxy)phenyl]-4-methyl-2-{[(6-methyl-1-phenyl-1H-indazol-4-yl)amino]methyl}-2-pentanol]
21 | < 3.16 nM | COc1ccc(F)cc1C(C)(C)CC(O)(CNc1cccc2c1cnn2-c1ccc(F)cc1)C(F)(F)F (racemic) [Example 2, 1,1,1-Trifluoro-4-[5-fluoro-2-(methyloxy)phenyl]-2-({[1-(4-fluorophenyl)-1H-indazol-4-yl]amino}methyl)-4-methyl-2-pentanol]
22 | < 3.16 nM | COC(=O)c1cccc(-n2ncc3c(NCC(O)(CC(C)(C)c4cc(F)ccc4OC)C(F)(F)F)cccc32)c1 (single isomer, unassigned) [Example 14-B, Methyl 3-(4-{[4-[5-fluoro-2-(methyloxy)phenyl]-2-hydroxy-4-methyl-2-(trifluoromethyl)pentyl]amino}-1H-indazol-1-yl)benzoate]
23 | < 3.16 nM | CCOC(=O)c1cccc(-n2ncc3c(NCC(O)(CC(C)(C)c4cc(F)ccc4OC)C(F)(F)F)cccc32)c1 (single isomer, unassigned) [Example 6-B, Ethyl 3-(4-{[4-[5-fluoro-2-(methyloxy)phenyl]-2-hydroxy-4-methyl-2-(trifluoromethyl)pentyl]amino}-1H-indazol-1-yl)benzoate]
24 | < 3.16 nM | COc1ccc(F)cc1C(C)(C)CC(O)(CNc1cccc2c1cnn2-c1ccc(F)cc1F)C(F)(F)F (racemic) [Example 4, 2-({[1-(2,4-Difluorophenyl)-1H-indazol-4-yl]amino}methyl)-1,1′-trifluoro-4-[5-fluoro-2-(methyloxy)phenyl]-4-methyl-2-pentanol]
